Data on 8 compounds can be found in ChEMBL document CHEMBL1201862, “PubChem BioAssay data set” (2004).

Activity calls are given as the source filed them. Where only a bound is given, the exact number is not on record here.

Holding throughout (format): functional
Experiment [1] concerns the target T1, High affinity choline transporter 1 (Homo sapiens, UniProt Q9GZV3).
T1 sequence (Q9GZV3 whole entry): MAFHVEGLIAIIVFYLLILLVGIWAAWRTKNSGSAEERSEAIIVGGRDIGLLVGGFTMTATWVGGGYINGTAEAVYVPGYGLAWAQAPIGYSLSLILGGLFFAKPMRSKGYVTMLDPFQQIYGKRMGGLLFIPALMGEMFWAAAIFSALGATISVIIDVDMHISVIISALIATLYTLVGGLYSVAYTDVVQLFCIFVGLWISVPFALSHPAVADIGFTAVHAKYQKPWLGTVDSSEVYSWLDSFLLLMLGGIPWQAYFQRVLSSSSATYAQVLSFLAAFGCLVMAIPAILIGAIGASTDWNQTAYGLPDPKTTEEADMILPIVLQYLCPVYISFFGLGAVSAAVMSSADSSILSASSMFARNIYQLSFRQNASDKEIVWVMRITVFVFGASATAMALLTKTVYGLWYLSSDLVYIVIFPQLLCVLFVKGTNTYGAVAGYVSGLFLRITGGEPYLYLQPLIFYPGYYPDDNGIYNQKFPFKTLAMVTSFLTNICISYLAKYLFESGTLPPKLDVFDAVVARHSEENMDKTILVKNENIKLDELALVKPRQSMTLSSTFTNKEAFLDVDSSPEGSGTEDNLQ
In words: CHT inhibitors, dose response, cell-based, 5-point CRC, membrane potential dye (AID 504840).

For experiment [2], the target named is T1, High affinity choline transporter 1. In words: CHT inhibitors, dose response, cell-based, 10-point CRC, membrane potential dye (AID 588401).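 Note: membrane potential dye fluorescence of choline-evoked depolarization via CHT.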
The target in another experiment is T2, Caspase-3 (Homo sapiens, UniProt P42574).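 Note: Dose-response selectivity test against caspase-3 for candidate inhibitors of sentrin-specific proteases (SENPs).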
T2 sequence (P42574 whole entry): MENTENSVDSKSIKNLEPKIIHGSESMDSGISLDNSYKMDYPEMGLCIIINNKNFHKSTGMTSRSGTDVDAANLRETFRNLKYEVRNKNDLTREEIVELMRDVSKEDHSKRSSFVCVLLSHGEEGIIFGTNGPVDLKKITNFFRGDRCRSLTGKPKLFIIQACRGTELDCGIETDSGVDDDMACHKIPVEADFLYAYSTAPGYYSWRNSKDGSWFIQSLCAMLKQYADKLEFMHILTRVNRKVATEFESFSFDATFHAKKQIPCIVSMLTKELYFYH

The target of experiment [3] is T3, Sentrin-specific protease 7 (Homo sapiens, UniProt Q9BQF6).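 Note: Luminescence-based dose-response confirmation of ultra-high-throughput screening hits, measuring inhibition of SENP7.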
T3 sequence (Q9BQF6 whole entry): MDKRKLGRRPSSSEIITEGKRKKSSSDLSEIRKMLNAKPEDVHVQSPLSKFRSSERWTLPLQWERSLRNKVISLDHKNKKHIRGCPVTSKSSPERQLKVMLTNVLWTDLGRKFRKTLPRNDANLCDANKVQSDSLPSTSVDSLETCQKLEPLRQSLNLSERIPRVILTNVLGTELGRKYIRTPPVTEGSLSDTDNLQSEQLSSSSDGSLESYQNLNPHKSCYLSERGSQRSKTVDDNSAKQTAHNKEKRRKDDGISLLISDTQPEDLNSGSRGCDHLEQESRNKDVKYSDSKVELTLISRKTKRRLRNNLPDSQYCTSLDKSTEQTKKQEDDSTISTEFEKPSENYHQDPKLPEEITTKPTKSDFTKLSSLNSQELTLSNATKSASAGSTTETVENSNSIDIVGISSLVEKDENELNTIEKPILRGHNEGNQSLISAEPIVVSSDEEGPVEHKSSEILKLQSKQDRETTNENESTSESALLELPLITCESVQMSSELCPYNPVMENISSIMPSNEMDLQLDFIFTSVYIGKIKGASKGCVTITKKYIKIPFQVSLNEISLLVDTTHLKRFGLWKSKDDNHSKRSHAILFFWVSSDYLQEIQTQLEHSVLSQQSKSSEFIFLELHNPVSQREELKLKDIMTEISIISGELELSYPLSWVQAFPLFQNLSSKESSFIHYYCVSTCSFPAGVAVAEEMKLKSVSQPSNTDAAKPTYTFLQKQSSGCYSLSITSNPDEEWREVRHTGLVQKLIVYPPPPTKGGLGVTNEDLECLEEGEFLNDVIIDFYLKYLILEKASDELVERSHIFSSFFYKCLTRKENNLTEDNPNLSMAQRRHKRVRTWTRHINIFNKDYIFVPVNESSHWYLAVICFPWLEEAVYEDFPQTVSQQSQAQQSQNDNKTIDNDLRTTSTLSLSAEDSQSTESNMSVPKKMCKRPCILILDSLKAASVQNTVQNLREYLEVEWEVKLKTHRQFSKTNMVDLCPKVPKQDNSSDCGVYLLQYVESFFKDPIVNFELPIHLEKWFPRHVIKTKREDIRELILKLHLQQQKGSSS

Experiment [4] concerns the target T4, Sentrin-specific protease 6 (Homo sapiens, UniProt Q9GZR1).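 Note: Luminescence-based dose-response confirmatory assay of SENP6 inhibition, following up an ultra-high-throughput screen.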
T4 sequence (Q9GZR1 whole entry): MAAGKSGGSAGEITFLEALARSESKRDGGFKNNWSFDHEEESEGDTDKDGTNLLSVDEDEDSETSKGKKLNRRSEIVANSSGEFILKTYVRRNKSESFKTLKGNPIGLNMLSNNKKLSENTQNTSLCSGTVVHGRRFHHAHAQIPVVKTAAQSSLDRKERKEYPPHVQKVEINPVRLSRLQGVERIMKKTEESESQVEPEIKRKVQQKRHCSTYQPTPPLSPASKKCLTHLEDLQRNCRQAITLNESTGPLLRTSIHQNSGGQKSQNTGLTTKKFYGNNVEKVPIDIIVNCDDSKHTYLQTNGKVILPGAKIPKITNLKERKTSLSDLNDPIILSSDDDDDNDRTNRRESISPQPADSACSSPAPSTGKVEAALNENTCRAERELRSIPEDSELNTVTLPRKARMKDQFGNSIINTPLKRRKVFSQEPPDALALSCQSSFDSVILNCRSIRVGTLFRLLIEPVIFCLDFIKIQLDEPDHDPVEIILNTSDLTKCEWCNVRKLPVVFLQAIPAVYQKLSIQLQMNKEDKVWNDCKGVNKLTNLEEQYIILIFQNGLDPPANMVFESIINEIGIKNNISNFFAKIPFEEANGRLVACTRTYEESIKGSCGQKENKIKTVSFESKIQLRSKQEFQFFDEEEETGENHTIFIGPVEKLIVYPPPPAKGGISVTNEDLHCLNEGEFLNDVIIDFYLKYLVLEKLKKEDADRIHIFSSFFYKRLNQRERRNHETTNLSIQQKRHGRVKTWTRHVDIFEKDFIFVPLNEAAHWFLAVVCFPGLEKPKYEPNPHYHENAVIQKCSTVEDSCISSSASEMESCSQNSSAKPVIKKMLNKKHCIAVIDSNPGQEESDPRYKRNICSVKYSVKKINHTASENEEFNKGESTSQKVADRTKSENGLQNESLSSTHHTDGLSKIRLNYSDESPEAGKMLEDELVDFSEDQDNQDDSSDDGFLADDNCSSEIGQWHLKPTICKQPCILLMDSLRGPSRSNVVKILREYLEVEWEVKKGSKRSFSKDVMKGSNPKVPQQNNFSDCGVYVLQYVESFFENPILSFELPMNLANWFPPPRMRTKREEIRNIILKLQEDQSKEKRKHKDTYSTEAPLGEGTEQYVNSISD

Experiment [5] concerns the target T5, Sentrin-specific protease 8 (Homo sapiens, UniProt Q96LD8).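 Note: luminescence read-out of SENP8 inhibition, dose-response confirmation following an ultra-high-throughput screen.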
T5 sequence (Q96LD8 whole entry): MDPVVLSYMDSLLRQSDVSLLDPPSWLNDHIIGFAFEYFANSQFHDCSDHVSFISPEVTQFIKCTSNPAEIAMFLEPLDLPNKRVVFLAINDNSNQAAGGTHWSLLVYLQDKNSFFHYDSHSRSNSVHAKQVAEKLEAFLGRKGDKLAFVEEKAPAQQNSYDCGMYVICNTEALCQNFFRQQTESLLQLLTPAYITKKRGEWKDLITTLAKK

The target of experiment [6] is 26S proteasome non-ATPase regulatory subunit 14 (Homo sapiens, UniProt O00487). Description: inhibition of proteasome subunit RPN11 – biochemical, fluorescence polarization, uHTS hits, confirmation (AID 602368).
Sequence of 26S proteasome non-ATPase regulatory subunit 14 (O00487 whole entry): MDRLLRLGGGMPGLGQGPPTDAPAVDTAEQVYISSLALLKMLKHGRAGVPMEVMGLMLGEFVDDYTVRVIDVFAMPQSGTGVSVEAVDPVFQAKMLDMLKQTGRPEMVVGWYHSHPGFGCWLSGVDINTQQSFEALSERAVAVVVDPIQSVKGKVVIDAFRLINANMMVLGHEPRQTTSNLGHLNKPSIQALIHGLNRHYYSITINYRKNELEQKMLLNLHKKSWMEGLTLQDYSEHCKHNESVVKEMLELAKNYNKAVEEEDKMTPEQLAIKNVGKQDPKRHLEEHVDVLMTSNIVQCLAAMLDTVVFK
For experiment [7], the target named is 72 kDa type IV collagenase (Homo sapiens, UniProt P08253). In words: Dose Response validation of uHTS RPN11 inhibitor hits using a MMP-2 Fluorescence assay.
Sequence of 72 kDa type IV collagenase (P08253 whole entry): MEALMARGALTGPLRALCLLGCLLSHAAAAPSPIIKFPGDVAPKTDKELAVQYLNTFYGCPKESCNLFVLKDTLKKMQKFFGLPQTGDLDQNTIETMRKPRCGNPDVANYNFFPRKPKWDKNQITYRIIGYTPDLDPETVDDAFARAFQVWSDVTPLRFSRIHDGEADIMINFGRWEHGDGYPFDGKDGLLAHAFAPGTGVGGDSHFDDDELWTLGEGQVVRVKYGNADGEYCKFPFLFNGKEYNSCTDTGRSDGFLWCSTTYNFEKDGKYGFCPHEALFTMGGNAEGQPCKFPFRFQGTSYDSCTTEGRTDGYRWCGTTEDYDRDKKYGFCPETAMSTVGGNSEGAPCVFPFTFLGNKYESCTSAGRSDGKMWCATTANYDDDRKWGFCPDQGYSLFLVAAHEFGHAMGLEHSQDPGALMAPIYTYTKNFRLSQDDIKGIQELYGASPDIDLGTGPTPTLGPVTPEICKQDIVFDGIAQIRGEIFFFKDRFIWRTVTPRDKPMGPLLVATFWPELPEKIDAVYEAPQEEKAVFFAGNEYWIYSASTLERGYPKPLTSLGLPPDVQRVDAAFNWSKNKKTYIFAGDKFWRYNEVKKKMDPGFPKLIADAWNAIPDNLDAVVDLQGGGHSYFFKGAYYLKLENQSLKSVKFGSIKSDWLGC
Another experiment concerns the target Prothrombin (Bos taurus, UniProt P00735). Description: thrombin inhibition, dose response, biochemical, fluorescence polarization, uHTS hits (AID 602369). (In general: Fluorescence polarisation rises when a labelled molecule tumbles more slowly, as on binding a larger partner.)
Experiment [8] has as its target T6, Endoribonuclease toxin MazF (Escherichia coli K-12, UniProt P0AE70).
T6 sequence (P0AE70 whole entry): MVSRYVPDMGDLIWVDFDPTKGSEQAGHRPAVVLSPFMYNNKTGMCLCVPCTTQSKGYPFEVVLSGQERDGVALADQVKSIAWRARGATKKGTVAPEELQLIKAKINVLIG
In words: MazF toxin RNase activators, dose response, biochemical, fluorescence, single-stranded RNA substrate, uHTS hits (AID 588481).

The target in experiment [9] is T6, Endoribonuclease toxin MazF. In words: fluorescent RNA oligo signal without MazF, dose response, counter-screen for MazEF activator project, biochemical, fluorescence, single-stranded RNase substrate (AID 588502).
The target in a further experiment is T7, Protein skinhead-1 (Caenorhabditis elegans, UniProt P34707).
T7 sequence (P34707 whole entry): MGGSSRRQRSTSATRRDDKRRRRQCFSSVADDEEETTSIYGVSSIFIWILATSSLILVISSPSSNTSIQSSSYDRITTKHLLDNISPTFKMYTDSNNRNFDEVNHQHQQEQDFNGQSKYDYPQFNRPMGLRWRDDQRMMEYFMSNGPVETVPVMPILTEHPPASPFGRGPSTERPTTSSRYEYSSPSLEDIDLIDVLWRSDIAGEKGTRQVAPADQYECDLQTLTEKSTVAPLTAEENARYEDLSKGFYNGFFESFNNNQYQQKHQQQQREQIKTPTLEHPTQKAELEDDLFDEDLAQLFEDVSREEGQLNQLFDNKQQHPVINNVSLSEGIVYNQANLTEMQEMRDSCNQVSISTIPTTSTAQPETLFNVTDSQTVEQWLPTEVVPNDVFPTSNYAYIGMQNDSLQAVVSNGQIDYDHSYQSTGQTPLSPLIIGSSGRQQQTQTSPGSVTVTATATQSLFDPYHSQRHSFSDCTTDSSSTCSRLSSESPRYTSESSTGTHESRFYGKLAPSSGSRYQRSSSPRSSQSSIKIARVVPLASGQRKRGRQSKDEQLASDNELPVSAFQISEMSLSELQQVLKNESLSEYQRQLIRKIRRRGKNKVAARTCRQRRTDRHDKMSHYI

Experiment [10] concerns the target Protein disulfide-isomerase (Homo sapiens, UniProt P07237). Description: PDI inhibitors, insulin aggregation turbidity, dose response, biochemical, absorbance, cherry-picked samples (AID 602350).

Sequence of Protein disulfide-isomerase (P07237 whole entry): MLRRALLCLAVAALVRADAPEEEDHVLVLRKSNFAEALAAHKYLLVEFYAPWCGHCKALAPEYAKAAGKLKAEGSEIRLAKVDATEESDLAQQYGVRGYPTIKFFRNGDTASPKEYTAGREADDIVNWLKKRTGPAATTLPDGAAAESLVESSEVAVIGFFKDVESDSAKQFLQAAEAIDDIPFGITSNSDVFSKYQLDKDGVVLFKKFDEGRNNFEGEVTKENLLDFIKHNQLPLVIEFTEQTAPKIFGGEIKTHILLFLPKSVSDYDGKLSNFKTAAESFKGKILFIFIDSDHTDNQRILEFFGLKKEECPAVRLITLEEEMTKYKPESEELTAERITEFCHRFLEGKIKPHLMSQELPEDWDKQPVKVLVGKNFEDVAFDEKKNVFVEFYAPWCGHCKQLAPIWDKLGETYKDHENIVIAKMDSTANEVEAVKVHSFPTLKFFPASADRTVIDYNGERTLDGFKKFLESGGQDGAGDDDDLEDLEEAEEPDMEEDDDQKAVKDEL

With `N=C1CCCN1CC(=O)c1ccc(Cl)cc1`, the figures for the IC50 in experiment [1] and in experiment [2] were 6.01 µM (active) and 2.7 µM (active), respectively.
Regarding `Cc1ccc2oc(-c3ccccc3)nc2c1`, the IC50 at Caspase-3 was 5.39 µM (active); in experiment [3] it was 5.32 µM (active); in experiment [4] it was 7.6 µM (active); in [5] it was 39.3 µM (active).
Consider `O=C(Nc1nc(-c2ccc(F)c(F)c2)cs1)Nc1ccc(F)cc1F`, for which the IC50 in experiment [6] was 30.3 µM (active); in [7], > 100 µM (inactive); at Prothrombin it was 78.3 µM (active).
Regarding `COC(=O)CSc1nc2cc(C)cc(C)c2cc1C#N`, the EC50 in [8] and in [9] was > 99 µM (inactive) throughout. For the same compound, the IC50 at Protein skinhead-1 was > 100 µM (inactive).
As for `COc1cccc(/C=C(/CC(=O)Nc2ccc(N3CCOCC3)cc2)c2nc3ccccc3s2)c1`, the IC50 was 12.6 µM (active) in experiment [6], > 100 µM (inactive) in experiment [7] and 25 µM (active) on Prothrombin.
Consider `O=C(OCCCOc1ccc(F)cc1)c1ccc(O)cc1O`, for which the IC50 is 3.59 µM (active) in experiment [1] and 4.47 µM (active) in experiment [2].
With `CC(=O)OC[C@H]1O[C@@H](Oc2cc(O)cc3oc(-c4ccc(O)cc4)cc(=O)c23)[C@H](O[C@@H]2O[C@@H](C)[C@H](O)[C@@H](O)[C@H]2O)[C@@H](O)[C@@H]1O`, the concentration at half-maximal activity (AC50) in [10] was 19.5 µM (active).
As for `COc1ccc(C2=NN(c3ccc(C(=O)O)cc3)C(c3ccc(OC)c(OC)c3)C2)cc1` (stereo not given), the results for the 50% inhibitory concentration (IC50) in experiment [1] and in experiment [2] were 4.79 µM (active) and 3.55 µM (active), respectively.

The term IC50 denotes the concentration that inhibits the measured activity by half. As a reminder, the EC50 is the concentration that produces a half-maximal response. What is called AC50 is the concentration giving half of the maximal activity seen.
